Tests used:
[1] = system: trimethylation level of histone H3K27 in G401 cells; assay: ELISA (H3K27 trimethylation) analysis in G401 cells; type: cell-based; conditions: Homo sapiens, G-401, 72 hours, H3K27me3 standardized to H3
Protocol: 3-fold series dilution with DMSO was carried out on the representative compounds of the present disclosure; and 10 concentration gradients were detected for each compound, with the highest detection concentration of 10 μM. The compounds were diluted 200-fold into the G401 cells cultured in a 96-well plate (DMSO at a final concentration of 0.5%). After the cells, administered with the compound, were cultured for 72 hours, the trimethylation level of the histone H3K27 was detected using the ELISA method.
Extraction of the histone: in a 96-well plate, the compound-treated cells were washed three times with 1×PBS (10×PBS buffer (80 g NaCl (Sigma, product number S3014), 2 g KCl (Sigma, product number 60128), 14.4 g Na2HPO4 (Sigma, product number S5136), and 2.4 g KH2PO4 (Sigma, product number P9791) in 1 L of water, adjusting the pH to 7.4)). 100 μL of 0.4 N HCl was added into each well. The plate was placed at 4° C. and gently agitated for 2 hours to lyse the cells. The cell lysate was then neutralized with 80 μL of neutralization buffer (0.5 M disodium hydrogen phosphate, pH 12.5, 2.5 mM DTT; 1% cocktail (Sigma, product number P8340)) (the cell lysate and the neutralization buffer were thoroughly mixed to uniformity).
ELISA detection method: the cell lysate was transferred in parallel to two 384-well detection plates (PerkinElmer, OptiPlate-384HB, product number 6007290), wherein one of the plates was used to detect the H3K27 trimethylation level and the other plate was used to determine the level of H3. PBS was used to adjust the final volume to 50 μL/well. The plates were coated at 4° C. overnight. On the following day, the solution inside the wells was discarded and the plates were washed 5 times with TBST buffer (1×TBS (10×TBS: 24.2 g Tris (Sigma, product number T6066), 80 g NaCl (Sigma, product number S3014) in 1 L of water, adjusting the pH with HCl to 7.6), 0.1% Tween-20) and dried on an absorbent paper by inversion. 70 μL of blocking buffer (TBST, 5% BSA) was added into the coated reaction wells and the plates were incubated at room temperature for 1 hour. The blocking buffer was discarded and primary antibodies were added (30 μL/well). The desired primary antibodies were all diluted with a blocking buffer and the dilution factor was as follows: anti-H3K27me3 antibody (Cell Signaling Technology, product number 9733), 1:2000 dilution; anti-H3 antibody (Cell Signaling Technology, product number 4499), 1:10000 dilution. After the primary antibodies were added, the plates were placed at room temperature and incubated for 1 hour. After the plates were washed with TBST 5 times, the plates were dried by inversion. A secondary antibody (30 μL/well) was added to each of the reaction wells and the plates were incubated at room temperature for 1 hour. The secondary antibody (anti-rabbit antibody (Jackson ImmunoResearch, product number 111-035-003)) was diluted 2000-fold with a blocking buffer before use. After 1 hour, the plates were washed with TBST and dried by inversion. 30 μL of ECL substrate (Pierce, product number 34080) was added into each well and centrifuged at 2000 rpm for 30 seconds. The signal of each sample was detected using SpectraMax (Molecular Devices). Data processing: H3K27 methylation readings were first standardlized using H3 signals and 0.5% DMSO-treated samples was used as the control to calculate the inhibition percentage of the compounds. Data were fit to obtain Dose-Response curves using the GraphPad prism 5 program and the IC50 values of the test compounds were obtained.

KARPAS-422 cells = assay: Cell proliferation analysis, KARPAS-422, 13 days, CellTiter-Glo; type: cell-based; conditions: Homo sapiens, 312 h
Protocol: Human B-cell non-Hodgkin lymphoma cells, KARPAS-422 S, were cultured in a culture flask using standard cell culture conditions. The medium contained 15% fetal bovine serum (FBS, Invitrogen, product number 10099-141) and 1% penicillin/streptomycin solution (P/S) RPMI-1640 (Invitrogen, product number 11875), and the culture flask was placed and cultured in a sterile incubator at the temperature of 37° C. and […] with a relative humidity of […] To detect the effect of PRC2 inhibitors on cell proliferation, cells in exponential growth phase were taken and seeded into a 96-well plate (Corning, product number 3904) at a density of 1×10^4 cells/well, and 100 μL of the medium was added into each well. Subsequently, the compounds at different concentrations disclosed in the present disclosure were added into the wells where cells had already been seeded (9 concentration gradients were provided for each compound, with the highest detection concentration at 10 μM, 3-fold gradient dilution) and two replicates in parallel were provided for each treatment concentration. DMSO was at a final concentration of 0.5%. Afterwards, viable cell numbers were determined using Vi-CELL (Beckman Coulter) every 3-4 days. Cells counted were seeded into a new 96-well plate at the same density (1×10^4 cells/well) each time. The wells were supplemented with a fresh medium to 100 μL and at the same time, compounds at different concentrations were added. The cells were cultured to day 13. 100 μL of CellTiter-Glo (CellTiter-GloCellTiter-GloCellTiter-GloCTG) (Promega, product number G7573) was added into each well. The plate was placed in the dark at room temperature for 10-20 minutes and the luminescence signal was read using SpectraMax i3× (Molecular Devices).

Structure (SMILES) | IC50 [1] [µM] | IC50 (KARPAS-422 cells) [µM]
NC(=O)c1cnc2c(-c3cnc(NCc4c(F)ccc5c4CCO5)n4cnnc34)cc(F)cn12 [6-fluoro-8-(5-(((5-fluoro-2,3-dihydrobenzofuran-4-yl)methyl)amino)-[1,2,4]triazolo[4,3-c]pyrimidin-8-yl)imidazo[1,2-a]pyridine-3-carboxamide] | 0.0134 | 0.0046
CN(C)c1nc2c(-c3cnc(NCc4c(F)ccc5c4CCO5)n4cnnc34)cc(F)cn2n1 [8-(2-(dimethylamino)-6-fluoro-[1,2,4]triazolo[1,5-a]pyridin-8-yl)-N-((5-fluoro-2,3-dihydrobenzofuran-4-yl)methyl)-[1,2,4]triazolo[4,3-c]pyrimidin-5-amine] | 0.0018 | 0.0244
N#Cc1cnc2c(-c3cnc(NCc4c(F)ccc5c4CCO5)n4cnnc34)cc(F)cn12 [6-fluoro-8-(5-(((5-fluoro-2,3-dihydrobenzofuran-4-yl)methyl)amino)-[1,2,4]triazolo[4,3-c]pyrimidin-8-yl)imidazo[1,2-a]pyridine-3-carbonitrile] | 0.0089 | 0.0083
Fc1ccc2c(c1CNc1ncc(-c3ccc(Cl)n4ncnc34)c3nncn13)CCO2 [8-(5-chloro-[1,2,4]triazolo[1,5-a]pyridin-8-yl)-N-((5-fluoro-2,3-dihydrobenzofuran-4-yl)methyl)-[1,2,4]triazolo[4,3-c]pyrimidin-5-amine] | 0.033 | 0.018
CN(C)c1ccc(-c2cnc(NCc3c(F)ccc4c3CCO4)n3cnnc23)c2ncc(C#N)n12 [5-(dimethylamino)-8-(5-(((5-fluoro-2,3-dihydrobenzofuran-4-yl)methyl)amino)-[1,2,4]triazolo[4,3-c]pyrimidin-8-yl)imidazo[1,2-a]pyridine-3-carbonitrile] | 0.0009 | 0.0009
CN1CCN(c2ccc(-c3cnc(NCc4c(F)ccc5c4CCO5)n4cnnc34)c3ncnn23)CC1 [N-((5-fluoro-2,3-dihydrobenzofuran-4-yl)methyl)-8-(5-(4-methylpiperazin-1-yl)-[1,2,4]triazolo[1,5-a]pyridin-8-yl)-[1,2,4]triazolo[4,3-c]pyrimidin-5-amine] | 0.0041 | 0.0007
Fc1ccc2c(c1CNc1ncc(-c3ccc(N4CC5(COC5)C4)n4ncnc34)c3nncn13)CCO2 [8-(5-(2-oxa-6-azaspiro[3.3]heptan-6-yl)-[1,2,4]triazolo[1,5-a]pyridin-8-yl)-N-((5-fluoro-2,3-dihydrobenzofuran-4-yl)methyl)-[1,2,4]triazolo[4,3-c]pyrimidin-5-amine] | 0.0017 | 0.0018
CC(C)(O)COCc1ccc(-c2cnc(NCc3c(F)ccc4c3CCO4)n3cnnc23)c2ncnn12 [1-((8-(5-(((5-fluoro-2,3-dihydrobenzofuran-4-yl)methyl)amino)-[1,2,4]triazolo[4,3-c]pyrimidin-8-yl)-[1,2,4]triazolo[1,5-a]pyridin-5-yl)methoxy)-2-methylpropan-2-ol] | 0.0064 | 0.0012
Fc1ccc2c(c1CNc1ncc(-c3cccc4nsnc34)c3nncn13)CCO2 [8-(benzo[c][1,2,5]thiadiazol-4-yl)-N-((5-fluoro-2,3-dihydrobenzofuran-4-yl)methyl)-[1,2,4]triazolo[4,3-c]pyrimidin-5-amine] | 0.0023 | 0.014
CN(C)Cc1ccc(-c2cnc(NCc3c(F)ccc4c3CCO4)n3cnnc23)c2ncc(C#N)n12 [5-((dimethylamino)methyl)-8-(5-(((5-fluoro-2,3-dihydrobenzofuran-4-yl)methyl)amino)-[1,2,4]triazolo[4,3-c]pyrimidin-8-yl)imidazo[1,2-a]pyridine-3-carbonitrile] | 0.0007 | 0.0005
Fc1ccc2c(c1CNc1ncc(-c3ccc(N4CCC(N5CCOCC5)CC4)n4ncnc34)c3nncn13)CCO2 [N-((5-fluoro-2,3-dihydrobenzofuran-4-yl)methyl)-8-(5-(4-morpholinopiperidin-1-yl)-[1,2,4]triazolo[1,5-a]pyridin-8-yl)-[1,2,4]triazolo[4,3-c]pyrimidin-5-amine] | 0.0011 | 0.0008
COc1cc(-c2cnc(NCc3c(F)ccc4c3CCO4)n3cnnc23)c2ncc(C#N)n2c1 [8-(5-(((5-fluoro-2,3-dihydrobenzofuran-4-yl)methyl)amino)-[1,2,4]triazolo[4,3-c]pyrimidin-8-yl)-6-methoxyimidazo[1,2-a]pyridine-3-carbonitrile] | 0.0042 | 0.0045
Cc1nc2c(-c3cnc(NCc4c(F)ccc5c4CCO5)n4cnnc34)ccc(C)n2n1 [8-(2,5-dimethyl-[1,2,4]triazolo[1,5-a]pyridin-8-yl)-N-((5-fluoro-2,3-dihydrobenzofuran-4-yl)methyl)-[1,2,4]triazolo[4,3-c]pyrimidin-5-amine] | 0.0013 | 0.0013
N#Cc1ccc(-c2cnc(NCc3c(F)ccc4c3CCO4)n3cnnc23)c2nccn12 [8-(5-(((5-fluoro-2,3-dihydrobenzofuran-4-yl)methyl)amino)-[1,2,4]triazolo[4,3-c]pyrimidin-8-yl)imidazo[1,2-a]pyridine-5-carbonitrile] | 0.0048 | 0.0036
Cc1ccc(-c2cnc(NCc3c(F)ccc4c3CCO4)n3cnnc23)c2nncn12 [N-((5-fluoro-2,3-dihydrobenzofuran-4-yl)methyl)-8-(5-methyl-[1,2,4]triazolo[4,3-a]pyridin-8-yl)-[1,2,4]triazolo[4,3-c]pyrimidin-5-amine] | 0.0002 | 0.0002
CN(C)c1nc2c(-c3cnc(NCc4c(F)ccc5c4CCO5)n4cnnc34)cccn2n1 [8-(2-(dimethylamino)-[1,2,4]triazolo[1,5-a]pyridin-8-yl)-N-((5-fluoro-2,3-dihydrobenzofuran-4-yl)methyl)-[1,2,4]triazolo[4,3-c]pyrimidin-5-amine] | 0.0084 | 0.0054
CN(C)c1ccc(-c2cnc(NCc3c(F)ccc4c3CCO4)n3cnnc23)c2ncnn12 [8-(5-(dimethylamino)-[1,2,4]triazolo[1,5-a]pyridin-8-yl)-N-((5-fluoro-2,3-dihydrobenzofuran-4-yl)methyl)-[1,2,4]triazolo[4,3-c]pyrimidin-5-amine] | 0.001 | 0.0014
Fc1ccc2c(c1CNc1ncc(-c3ccc(C(F)(F)F)n4ccnc34)c3nncn13)CCO2 [N-((5-fluoro-2,3-dihydrobenzofuran-4-yl)methyl)-8-(5-(trifluoromethyl)imidazo[1,2-a]pyridin-8-yl)-[1,2,4]triazolo[4,3-c]pyrimidin-5-amine] | 0.0106 | 0.007
